Experimental data reported in patent publication US20060067947A1, “Immunotherapeutic for cancer” (Orient Cancer Therapy Co., Ltd., priority 2002, published 2006).

How the values were obtained:
prostatic cancer = test: Efficacy judgment on patients; format: in vivo, human; conditions: Case 2; IRESSA 250 mg/day combined with NITC, after one month
Procedure: (§3) Further, similarly to Example 1, an IL-12 inducer, shark cartilage (Seishin Enterprise Co., Ltd.), and a saccharide (NK, NKT activator) having an α1,3 structure were administered to the patients in each case according to the respective recommended prescriptions.

CD3+CD161+ NKT cell = test: NKT cell measurement by flow cytometry; format: in vivo, human; conditions: Case 2; per date of visit
Procedure: Measurement of NKR-P1-bearing NKT cell can be conducted by measuring cell surface antigens (CD3 and CD161) existing specifically on the NKT cell surface. More specifically, peripheral blood lymphocytes are examined with respect to cells with positive CD3 and positive CD161 (CD3+CD161+). That is, CD3 and CD161, NKT cell surface antigens, are measured by the two-color assay through flow cytometry using monoclonal antibody. Here, the term “NKT cell activation” refers to as the CD3+CD161+ NKT cell proportion in lymphocyte being 10% or more and preferably 16% or more. The term “NKT cell activating capability” denotes a capability of increasing the NKT cell proportion to 10% or more and preferably 16% or more, or a capability of further augmenting the NKT cell proportion from a proportion before administration of a certain substance.
(§1) In the examples, using blood obtained from cancer patients, blood cells were discriminated as positive or negative of the cell surface antigens CD3, CD161 and CD8, with each cell proportion measured according to a conventional method by two-color assay using flow cytometry. At this time, for respective monoclonal antibodies to CD3, CD161 and CD8, those manufactured by Coulter or Becton Dickinson were used.

CD3−CD161+ NK cell = test: NK cell measurement by flow cytometry; format: in vivo, human; conditions: Case 2; per date of visit
From the text: Likewise, the term “(CD3−CD161+)” refers to examination of cells with negative CD3 and positive CD161. This method is useful for NK cell measurement.
as §1

CD8+ perforin+ cells = test: CD8+ perforin production cell measurement; format: in vivo, human; conditions: Case 2; per date of visit
From the text: Further, the term “CD8+” denotes examination of cells with positive CD8. This method is useful for CTL activation measurement.
as §1
Two among CD3, CD161 and CD8, cell surface antigens, and perforin are measured with respect to peripheral blood lymphocyte according to a conventional method by three-color assay using flow cytometry. More specifically, a fixative is added to sampled blood, thus fixing cells. After addition of membrane permeating solution, anti-perforin antibody (manufactured by Pharmingen) is added for reaction. Further, PRE-Cy5 labeled second antibody (manufactured by DAKO) is added for reaction, followed by addition of anti-CD3-PE (Coulter 6604627) antibody and anti-CD161-FITC (B-D) antibody for reaction, after which measurement is conducted by flow cytometry. In the drawings and tables, the abbreviation “PER” is used.

[1] = test system: Th1/Th2 helper T-cells (CD4); test: Th1/Th2 cell ratio by flow cytometry; format: in vivo, human; conditions: Case 2; per date of visit
Procedure: The Th1/Th2 cell ratio was determined according to an ordinary method by helper T(Th)-cell line three-color analytical assay using flow cytometry.
First, blood collected from cancer patients was treated for 4 hours at 37° C. with phorbol 12-myristate 13 acetate and ionomycin to stimulate cells in the blood to produce cytokines. Next, Breferdin A was added to stop the production reaction, cell surface marker CD4 was stained using an anti-CD4 antibody CD4-PC5 (Beckman Coulter), the cells were fixed and then subjected to hemolysis using FACS Lysing Solution (Nippon Becton Dickinson Co., Ltd.). Thereafter, cells were permeabilized with FACS Permeabilizing Solution (Nippon Becton Dickinson Co., Ltd.), and intracellular cytokines were stained using anti-IFNγ antibody/anti-IL-4 antibody (Fastimmune IFNγ FITC/IL-4 PE, from Nippon Becton Dickinson Co., Ltd.), and then measured and analysed with a flow cytometer (FACS Calibur, Becton Dickinson).

TNFα = TNFα measurement by ELISA; format: in vivo, human; conditions: Case 2; per date of visit
Procedure: After washing, 10% fetal bovine serum (FBS)-added RPMI-1640 culture medium was added for preparation to provide a cell count of 1×10^6/ml. Phytohemagglutinin (30 μg/ml) (manufactured by Difco) was added to 200 μl of the cell suspension thus obtained, and then the mixture was cultured using a 96 well microplate under 5% CO2 at 37° C. for 24 hours.

IFNγ = IFNγ measurement by EIA; format: in vivo, human; conditions: Case 2; per date of visit
Procedure: (§2) After washing, 10% fetal bovine serum (FBS)-added RPMI-1640 culture medium is added for preparation to provide a cell count of 1×10^6. Phytohemagglutinin (manufactured by Difco) is added to 200 μl of the cell suspension thus obtained to provide a concentration of 20 μg/ml, and then the mixture is cultured using a 96 well microplate under 5% CO2 at 37° C. for 24 hours.

IL-12 = IL-12 measurement by ELISA; format: in vivo, human; conditions: Case 2; per date of visit
Procedure: Phytohemagglutinin (manufactured by Difco) is added to 200 μl of the cell suspension thus obtained to provide a concentration of 20 μg/ml, and then the mixture is cultured using a 96 well microplate under 5% CO2 at 37° C. for 24 hours.

IL-10 = IL-10 measurement; format: in vivo, human; conditions: Case 2; per date of visit
Procedure: as §2

VEGF = test: Serum VEGF by ELISA; format: in vivo, human; conditions: per date of visit
Procedure: (Measurement of vascular endothelial growth factor/VEGF, basic fibroblast growth factor/bFGF and neovascularization inhibitor endostatin/endostatin)
Serum concentrations were measured using commercially available kits for each enzyme linked immunosorbent assay (ELISA) ([…] Human VEGF, […] Human bFGF, […] Human Endostatin, from Cytimmune Sciences Inc.).

tumor markers = test: Tumor markers in clinical testing; format: in vivo, human
From the text: A commercially available product was used for each of the markers used in the clinical testing, and measurement values were shown in accordance with the respective recommended methods. All abbreviations shown are in accordance with common methods of presentation.

pulmonary adenocarcinoma [2] = conditions: IRESSA alone, reported up to now; cited from earlier work
[3] = test system: Th1 cytokines (TNFα, IFNγ, IL-12)
Procedure: In this case, a measurement kit purchased from R&D Systems was used. In practice, to each well of a 96-well microplate were added 50 μl of a measuring diluent, Assay Diluent RD1F, and 200 μl of a standard solution or samples prepared by the method for preparing the aforementioned samples for cytokine measurement, after which the samples were allowed to stand still at room temperature for 2 hours for reaction. Thereafter, 200 μl of horseradish peroxidase-labeled anti-IL12 antibody was added to the solution of each well, and the wells were then allowed to stand still at room temperature for 2 hours. After removing the reaction solution from each well and washing three times, 200 μl of chromophore solution was added to each well, the wells were allowed to stand still at room temperature for 20 minutes, and 50 μl of enzyme reaction stopping solution was then added to each well. The absorbance of each sample was measured at 450 nm with Emax (from Wako Pure Chemical Industries, Ltd.) employing 550 nm as a control. The amount of IL-12 is represented in pg/ml.
Measurement of IFNγ was conducted by enzyme immunoassay (EIA) using the IFNγ EASIA kit available from BioSource Europe SA. […]

[4] = test system: non-small-cell lung cancer, prostatic cancer and the like; conditions: cited from earlier work
pulmonary adenocarcinoma [5] = test: Efficacy judgment on patients (CR, PR, LNC, SNC, PD)
Procedure: as §3

[6] = Case 1, IRESSA added to NITC, after one and a half months
[7] = Case 3, IRESSA with NITC, approximately 1 month
[8] = IRESSA alone, reported clinical results

COc1cc2ncnc(Nc3ccc(F)c(Cl)c3)c2cc1OCCCN1CCOCC1 [IRESSA]
multiple bone metastasis (prostatic cancer): complete remission
CD3+ CD161+ (16%) (CD3+CD161+ NKT cell): 17.0%
CD3− CD161+ (11%) (CD3−CD161+ NK cell): 12.3%
CD8+ PER+ (14%) (CD8+ perforin+ cells): 7.2%
Ratio of TH1/TH2 (CD4) (7 or more) [1]: 2.7
TNF α (1000 pg/ml) (TNFα): 3420 pg/mL
IFN γ (10 IU/ml) (IFNγ): 46.2 IU/ml
IL-12 (7.8 pg/ml) (IL-12): 72.4 pg/mL
IL-10 (IL-10): 154 pg/mL
VEGF (VEGF; Case 1): 320 pg/mL
VEGF (VEGF; Case 2): 342 pg/mL
various tumor markers (tumor markers; [6]): normalized
CA15-3 (30 U/ml) (tumor markers; Case 1, per date of visit): 26 U/ml
CA19-9 (37 U/ml) (tumor markers; Case 1, per date of visit): 32 U/ml
CEA (5.0 ng/ml) (tumor markers; Case 1, per date of visit): 4.5 ng/mL
NCC-ST-439 (7.0 U/ml) (tumor markers; Case 1, per date of visit): 6.7 U/ml
SPAN-1 (30 U/ml) (tumor markers; Case 1, per date of visit): 16 U/ml
Sielyl LEX-1 (38 U/ml) (tumor markers; Case 1, per date of visit): 36 U/ml
PSA value (tumor markers; Case 2, IRESSA combined with NITC, after one month, normalized): 4.0 ng/mL
1CTP (4.5 ng/ml) (tumor markers; Case 2, per date of visit): 2.5 ng/mL
CA19-9 (37 U/ml) (tumor markers; Case 2, per date of visit): 27 U/ml
Gamma-seminoprotein (4.0 ng/ml) (tumor markers; Case 2, per date of visit): 4.0 ng/mL
PA (RIA) (4.0 ng/ml) (tumor markers; Case 2, per date of visit): 4.0 ng/mL
PAP (EIA) (3.0 ng/ml) (tumor markers; Case 2, per date of visit): 1.4 ng/mL
tumor marker CEA (tumor markers; Case 3, IRESSA with NITC, approximately 1 month, from 256 ng/ml prior to the treatment): 172 ng/mL
SLX-1 (tumor markers; Case 3, IRESSA with NITC, approximately 1 month, from 480 U/ml prior to the treatment): 140 U/ml
proportion of effective cases (pulmonary adenocarcinoma [2]): around 20%
TNFα, IFNγ, and IL-12 [3, 6]: activated at levels exceeding standard values
induced production of TNFα, IFNγ, and IL-12 [3, 7]: increased
period to reach complete remission ([4]; IRESSA alone, extremely rare cases): ≥ 4 months
CR (complete remission) found [4, 8]: almost no CR
PR (partial remission) cases [4, 8]: 10 to 20%
cessation of proliferation (NC) ([4]; treatment by IRESSA): about 50%
reduction (PR) in cancer cells ([4]; treatment by IRESSA): about 20%
carcinomatous pleural fluid and primary lung cancer (pulmonary adenocarcinoma [5]; Case 1, IRESSA 250 mg per day added to NITC, after one and a half months): completely disappeared
bone metastasis to right hip joint, cervical vertebrae and thoracic vertebrae (pulmonary adenocarcinoma [5]; [6]): cured
miliary lung metastasis (pulmonary adenocarcinoma [5]; [7]): almost disappeared
multiple costal metastasis (pulmonary adenocarcinoma [5]; [7]): disappeared
primary focus in the right lung (pulmonary adenocarcinoma [5]; [7]): reduced by half
